Experiment: method code SF-AS, from DOI: 10.1080/01483918708066826

| logP | Structure (SMILES) |
| --- | --- |
| 2.08 | O=C(O)C(Cc1ccc(Cl)cc1)n1cccc1 (stereo not given) |
| 0.7 | O=C(O)Cn1cccc1 |
| 2.49 | O=C(O)C(c1ccccc1F)n1cccc1 (stereo not given) |
| 1.57 | O=C(O)C(c1ccccc1)n1cccc1 (stereo not given) |
| 0.76 | O=C(O)Cc1ccc(-n2cccc2)cc1 |
| 2.04 | O=C(O)C(Cc1ccc(F)cc1)n1cccc1 (stereo not given) |
| 2.3 | O=C(O)C(c1ccc(Cl)cc1)n1cccc1 (stereo not given) |
| 1.56 | O=C(O)C(Cc1ccc(O)cc1)n1cccc1 (stereo not given) |
| 2.34 | O=C(O)C(Cc1ccccc1)n1cccc1 (stereo not given) |
| 2.04 | O=C(O)c1ccccc1-n1cccc1 |

Reference: the SangsterLogP compilation
